Data published in patent US9005678B1, “Pharmaceutical composition for treating cancer and use thereof” (Jiangsu Province Institute of Traditional Chinese Medicine, priority 2013, dated 2015).

Tests used:
[1] = Body weight of CIPN rats (oxaliplatin-induced peripheral neuropathy model); format: in vivo, rat; settings: oxaliplatin 4 mg/kg i.p. twice per week; after 7 days of modeling
Text: (§1) Animals were housed 3 per cage in a temperature- and humidity-controlled environment under a 12/12-h light/dark cycle. Food and water were freely available. All experimental procedures were approved by the Animal Experimental committee of Jiangsu Province Academy of Traditional Chinese Medicine. All efforts were made to minimize the number of animals used and their suffering.
(§2) (1) Animal Grouping: the rats were randomly divided into five groups by using randomized grouping method (N=10 rats/group):
(§3) Group 1: saline (control group)
(§4) (2) Modeling and Administration: The first day of drug treatment was referred to as d1. […] After the last administration, the rats were sacrificed. Spinal cord and L5 dorsal root ganglia were harvested from all experimental animals, and taken to make tissue sections, which were stained with Nissl staining to observe the extent of damage in neurons. The expressions of pain-related TRP ion channel proteins, TRPMS, TRPV1, and TRPA1mRNA, in dorsal root ganglion tissue were determined by qPCR assay. (4) Von Frey test for mechanical allodynia: According to the method described by Chaplan et al^[22], the mechanical allodynia was assessed by von Frey test. Rats were placed in a clear plastic box (22×12×22 cm) with a wire mesh floor and allowed to habituate for 15 min prior to testing. […] 3.

CIPN rats = experiment: Von Frey test for mechanical allodynia in CIPN rats; format: in vivo, rat; settings: oxaliplatin 4 mg/kg i.p.; 14 days after the experiment; P<0.05
Text: as §1, §2, §3, §4

DRG neurons = experiment: Nissl staining of L5 dorsal root ganglia sections of CIPN rats; format: in vivo, rat; settings: oxaliplatin 4 mg/kg i.p.
Method: as §4

TRPM8 mRNA = TRPM8 mRNA expression in DRG by real-time PCR; format: in vivo, rat; settings: L4-L6 DRG; oxaliplatin model group; P<0.01
Method: as §4, with “Withdrawal responses to the stimulation of von Frey filaments were recorded and paw withdrawal thresholds were determined by a modified up-down method. Each von Frey filament with equivalent force was measured for five times, and the time interval between simulations was 30 seconds, 3 or more times of positive reactions out of 5 simulations was deemed to be mechanical allodynia. […]” for “3.”
(§5) To elucidate the mechanism of the preventive effect of AC591 on oxaliplatin-induced peripheral neuropathy, we determined the expression of TRPM8, TRPV1 and TRPA1 mRNA in L4-L6 DRG using real-time PCR.

TRPV1 mRNA = TRPV1 mRNA expression in DRG by real-time PCR; format: in vivo, rat; settings: L4-L6 DRG; oxaliplatin model group; P<0.01
Method: as §4, with “Withdrawal responses to the stimulation of von Frey filaments were recorded and paw withdrawal thresholds were determined by a modified up-down method. Each von Frey filament with equivalent force was measured for five times, and the time interval between simulations was 30 seconds, 3 or more times of positive reactions out of 5 simulations was deemed to be mechanical allodynia. […]” for “3.”
as §5

TRPA1 mRNA = TRPA1 mRNA expression in DRG by real-time PCR; format: in vivo, rat; settings: L4-L6 DRG; oxaliplatin model group; P<0.01
Method: as §4, with “Withdrawal responses to the stimulation of von Frey filaments were recorded and paw withdrawal thresholds were determined by a modified up-down method. Each von Frey filament with equivalent force was measured for five times, and the time interval between simulations was 30 seconds, 3 or more times of positive reactions out of 5 simulations was deemed to be mechanical allodynia. […]” for “3.”
as §5

[2] = test system: CT26 murine colorectal cancer cells; experiment: Colorectal cancer subcutaneous xenograft, tumor volume; format: in vivo, Balb/c mice; settings: oxaliplatin 5 mg/kg i.p.; days 4 and 7; P<0.05
Method: Experimental Animals and Cell Lines: Six-week-old Balb/c mice weighing (16±2) g, bisexual each half, were purchased from Shanghai Slac Laboratory Animal Center and kept in SPF Laboratory Animal Room in Institute of Chinese Medicine and Pharmacy of Jiangsu Province. CT26 murine colorectal cancer cells were obtained from molecular biology laboratory of Institute of Chinese Medicine and Pharmacy of Jiangsu Province.
CT26 cells were cultured in Dulbecco's Modified Eagle Medium with 2.0 g/1 sodium bicarbonate plus 10% fetal bovine serum, 1% L-glutamine, 100 U/ml penicillin and 100 U/ml streptomycin. When the cells were approximately 80% confluent, the culture medium was discarded and washed with PBS. Trypsin was then introduced to perform digestion. When the connection between cells appeared loose, the trypsin was discarded, and cell culture medium was introduced to terminate the digestion. Cells were repeatedly and gently pipetted with a pipette so as to be taken off the wall to form cell suspension. It was collected into centrifuge tubes and centrifuged. The concentration of cell suspension was adjusted to 1×10^6/0.2 ml with 0.9% sterile saline. […]
Tumor volume and body weight were recorded every 3 days, and the tumor volume was calculated using the formula: tumor volume (mm^3)=length (mm)×width (mm)^2/2. […]

[3] = cumulative dose of 1170 mg/m^2; cited from earlier work

For `O=C1[O][Pt]2([NH][C@@H]3CCCC[C@H]3[NH]2)[O]C1=O` [oxaliplatin], the “body weight of rats in model group versus control group” value [1] was “significantly lower”, the “mechanical paw-withdrawing threshold, model group compared with control group” value (CIPN rats) was “significantly decreased” and the “DRG neuron morphology in model group” value (DRG neurons) was “part of cell bodies and nuclei of neurons greatly shrinked”. For the same compound, the “expression of TRPM8 mRNA, increase in model group compared with control group” value (TRPM8 mRNA) was 2-4 fold, the “expression of TRPV1 mRNA, increase in model group compared with control group” value (TRPV1 mRNA) was 2-4 fold and the “expression of TRPA1 mRNA, increase in model group compared with control group” value (TRPA1 mRNA) was 2-4 fold. For the same compound, the “tumour volumes compared with vehicle” value [2] was “significantly inhibited the increase of tumour volumes” and the risk of neurotoxicity [3] was 50%.
